# Experimental data reported in patent US20170281470A1, “METHOD AND APPARATUS FOR DRY GRANULATION” (ATACAMA LABS OY, priority 2006, published 2017).
# Assay: Agglomeration during storage at room temperature and ambient humidity
# Type: physicochemical
# Conditions: stored in room temperature and ambient humidity
compound,measurement,value
"CN(C)C(=N)N=C(N)N [100% metformin fine powder, metformin]",agglomeration during storage,heavy agglomeration
